The record followed here is patent US20230159532A1, “PARATHYROID HORMONE (PTH) RECEPTOR ANTAGONISTS AND USES THEREOF” (Crinetics Pharmaceuticals, Inc., priority 2021, published 2023).

Structures are written as SMILES.

What is called Ki is a measure of affinity in units of concentration, obtained from inhibition or displacement.

This test concerns the target T1, human PTHR1 receptor (Homo sapiens, UniProt Q03431).
T1 construct: purchased Eurofins HTS030M
T1 sequence (Q03431 27-593): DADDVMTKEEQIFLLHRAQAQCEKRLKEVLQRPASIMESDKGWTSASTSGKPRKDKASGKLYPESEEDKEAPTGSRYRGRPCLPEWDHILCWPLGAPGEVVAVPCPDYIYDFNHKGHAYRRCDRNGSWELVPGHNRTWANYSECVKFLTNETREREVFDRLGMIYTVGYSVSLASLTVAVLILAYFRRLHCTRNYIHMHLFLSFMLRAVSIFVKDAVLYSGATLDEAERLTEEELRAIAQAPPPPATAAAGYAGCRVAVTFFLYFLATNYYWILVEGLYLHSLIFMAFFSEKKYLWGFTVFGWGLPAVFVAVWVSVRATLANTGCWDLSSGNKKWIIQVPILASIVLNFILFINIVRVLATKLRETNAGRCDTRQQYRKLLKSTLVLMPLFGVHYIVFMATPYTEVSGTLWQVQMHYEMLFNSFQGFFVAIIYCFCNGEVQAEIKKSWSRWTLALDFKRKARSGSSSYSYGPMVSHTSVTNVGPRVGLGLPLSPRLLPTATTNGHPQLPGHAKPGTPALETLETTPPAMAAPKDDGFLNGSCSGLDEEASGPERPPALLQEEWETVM
The test is described as follows: Competitive antagonist binding assay for hPTH-R1 (radioactive competition binding, SPA beads). The following applies: human PTHR1 membranes, [125I]-[Nle8,18,Tyr34]-PTH(1-34) 0.2 nM, 90 minutes at room temperature; read-out: hPTHR1 Ki. A digest of the protocol:
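Displacement of 0.2 nM radioiodinated [Nle8,18,Tyr34]-PTH(1-34) from membrane-bound human PTHR1 measured by scintillation proximity after 90 min at room temperature. Compounds typically 0-10,000 nM final, pH 7.4 HEPES/Mg/Ca buffer with BSA and detergent. Ki calculated from competition data.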
As to `CCN1C(=O)N(c2c(F)cc(NCCN[C@H]3C[C@@H](O)C3)cc2F)c2cc(C#N)ccc2-c2cc(F)cnc21` [1-232, 10-{2,6-difluoro-4-[(2-{[(1s,3s)-3-hydroxycyclobutyl]amino}ethyl)amino]phenyl}-8-ethyl-4-fluoro-9-oxo-6,8,10-triazatricyclo[9.4.0.0^2,7]pentadeca-1(11),2(7),3,5,12,14-hexaene-13-carbonitrile], the Ki is under 100 nM.
Regarding `CCN1C(=O)N(c2c(F)cc(NCCN[C@@H](CCSC)C(=O)O)cc2F)c2cc(C#N)ccc2-c2cc(Cl)cnc21` [1-233, (2S)-2-({2-[(4-{4-chloro-13-cyano-8-ethyl-9-oxo-6,8,10-triazatricyclo[9.4.0.0^2,7]pentadeca-1(11),2(7),3,5,12,14-hexaen-10-yl}-3,5-difluorophenyl)amino]ethyl}amino)-4-(methylsulfanyl)butanoic acid], the Ki was under 100 nM.
In the case of `CCN1C(=O)N(c2c(F)cc(NC3CNC3)cc2F)c2cc(C#N)ccc2-c2cc(Cl)cnc21` [1-234, 10-{4-[(azetidin-3-yl)amino]-2,6-difluorophenyl}-4-chloro-8-ethyl-9-oxo-6,8,10-triazatricyclo[9.4.0.0^2,7]pentadeca-1(11),2(7),3,5,12,14-hexaene-13-carbonitrile], the Ki was under 100 nM.
As to `CCN1C(=O)N(c2c(F)cc(N3CC[C@H](NC)C3)cc2F)c2cc(C#N)ccc2-c2cc(Cl)cnc21` [1-235, 4-chloro-10-{2,6-difluoro-4-[(3S)-3-(methylamino)pyrrolidin-1-yl]phenyl}-8-ethyl-9-oxo-6,8,10-triazatricyclo[9.4.0.0^2,7]pentadeca-1(11),2(7),3,5,12,14-hexaene-13-carbonitrile], the inhibitory constant (Ki) is under 100 nM.
On to `CCN1C(=O)N(c2c(F)cc(NCCN[C@H](C)C(=O)O)cc2F)c2cc(C#N)ccc2-c2cc(Cl)cnc21` [1-236, (2R)-2-({2-[(4-{4-chloro-13-cyano-8-ethyl-9-oxo-6,8,10-triazatricyclo[9.4.0.0^2,7]pentadeca-1(11),2(7),3,5,12,14-hexaen-10-yl}-3,5-difluorophenyl)amino]ethyl}amino)propanoic acid], for which the Ki is under 100 nM.
Take `CCN1C(=O)N(c2c(F)cc(NCCNCCN)cc2F)c2cc(C#N)ccc2-c2cc(F)cnc21` [1-237, 10-[4-({2-[(2-aminoethyl)amino]ethyl}amino)-2,6-difluorophenyl]-8-ethyl-4-fluoro-9-oxo-6,8,10-triazatricyclo[9.4.0.0^2,7]pentadeca-1(11),2(7),3,5,12,14-hexaene-13-carbonitrile]: the Ki is under 100 nM.
Take `CCN1C(=O)N(c2c(F)cc(NCCNCC3CCCN3)cc2F)c2cc(C#N)ccc2-c2cc(Cl)cnc21` (centres unmarked) [1-238, 4-chloro-10-{2,6-difluoro-4-[(2-{[(pyrrolidin-2-yl)methyl]amino}ethyl)amino]phenyl}-8-ethyl-9-oxo-6,8,10-triazatricyclo[9.4.0.0^2,7]pentadeca-1(15),2(7),3,5,11,13-hexaene-13-carbonitrile]: the Ki was under 100 nM.
On to `CCN1C(=O)N(c2c(F)cc(NCCNC[C@@H](O)c3ccccc3)cc2F)c2cc(C#N)ccc2-c2cc(Cl)cnc21` [1-239, 4-chloro-10-{2,6-difluoro-4-[(2-{[(2S)-2-hydroxy-2-phenylethyl]amino}ethyl)amino]phenyl}-8-ethyl-9-oxo-6,8,10-triazatricyclo[9.4.0.0^2,7]pentadeca-1(11),2(7),3,5,12,14-hexaene-13-carbonitrile], for which the Ki was under 100 nM.
Take `CCN1C(=O)N(c2c(F)cc(NCCN[C@@H](CC(C)C)C(=O)O)cc2F)c2cc(C#N)ccc2-c2cc(Cl)cnc21` [1-240, (2S)-2-({2-[(4-{4-chloro-13-cyano-8-ethyl-9-oxo-6,8,10-triazatricyclo[l9.4.0.0^2,7]pentadeca-1(11),2(7),3,5,12,14-hexaen-10-yl}-3,5-difluorophenyl)amino]ethyl}amino)-4-methylpentanoic acid]: the Ki is under 100 nM.
As for `CCN1C(=O)N(c2c(F)cc(N3CC[C@H](N)C3)cc2F)c2cc(C#N)ccc2-c2cc(Cl)cnc21` [1-241, 10-{4-[(3 S)-3-aminopyrrolidin-1-yl]-2,6-difluorophenyl}-4-chloro-8-ethyl-9-oxo-6,8,10-triazatricyclo[9.4.0.0^2,7]pentadeca-1(11),2(7),3,5,12,14-hexaene-13-carbonitrile], the figure is under 100 nM; as for `CCN1C(=O)N(c2c(F)cc(NCCNCC(=O)O)cc2F)c2cc(Cl)ccc2-c2cc(Cl)cnc21` [1-242, 2-({2-[(4-{4,13-dichloro-8-ethyl-9-oxo-6,8,10-triazatricyclo[9.4.0.0^2,7]pentadeca-1(11),2(7),3,5,12,14-hexaen-10-yl}-3,5-difluorophenyl)amino]ethyl}amino)acetic acid], under 100 nM; as for `CNCCNc1ccc(N2C(=O)N(C)c3ncccc3-c3ccc(Cl)cc32)cc1` [2-1, 13-chloro-8-methyl-10-(4-{[2-(methylamino)ethyl]amino}phenyl)-6,8,10-triazatricyclo[9.4.0.0^2,7]pentadeca-1(11),2(7),3,5,12,14-hexaen-9-one], 100 to 1000 nM.
As to `CNCCNc1ccc(N2C(=O)N(C)c3ncccc3-c3ccc(Cl)cc32)c(F)c1` [2-2, 13-chloro-10-(2-fluoro-4-{[2-(methylamino)ethyl]amino}phenyl)-8-methyl-6,8,10-triazatricyclo[9.4.0.0^2,7]pentadeca-1(11),2(7),3,5,12,14-hexaen-9-one], the Ki is 100 to 1000 nM.
The result for `CCN1C(=O)N(c2ccc(NCCNC)cc2)c2cc(Cl)ccc2-c2cc(Cl)cnc21` [2-3, 4,13-dichloro-8-ethyl-10-(4-{[2-(methylamino)ethyl]amino}phenyl)-6,8,10-triazatricyclo[9.4.0.0^2,7]pentadeca-1(11),2(7),3,5,12,14-hexaen-9-one] reads under 100 nM; that for `CCN1C(=O)N(c2ccc(NCCNC)cc2)c2cc(Cl)ccc2-c2cc(F)cnc21` [2-4, 13-chloro-8-ethyl-4-fluoro-10-(4-{[2-(methylamino)ethyl]amino}phenyl)-6,8,10-triazatricyclo[9.4.0.0^2,7]pentadeca-1(11),2(7),3,5,12,14-hexaen-9-one], under 100 nM.
With `CCN1C(=O)N(c2ccc(NCCNC)cc2)c2cc(Cl)ccc2-c2cc(C)cnc21` [2-5, 13-chloro-8-ethyl-4-methyl-10-(4-{[2-(methylamino)ethyl]amino}phenyl)-6,8,10-triazatricyclo[9.4.0.0^2,7]pentadeca-1(11),2(7),3,5,12,14-hexaen-9-one], the Ki is under 100 nM.
As to `CCN1C(=O)N(c2ccc(NCCNC)cc2)c2cc(OC)ccc2-c2cc(Cl)cnc21` [2-6, 4-chloro-8-ethyl-13-methoxy-10-(4-{[2-(methylamino)ethyl]amino}phenyl)-6,8,10-triazatricyclo[9.4.0.0^2,7]pentadeca-1(11),2(7),3,5,12,14-hexaen-9-one], the Ki is under 100 nM.
The result for `CCN1C(=O)N(c2ccc(NCCNCCO)cc2F)c2cc(Cl)ccc2-c2cc(Cl)cnc21` [2-7, 4,13-dichloro-8-ethyl-10-[2-fluoro-4-({2-[(2-hydroxyethyl)amino]ethyl}amino)phenyl]-6,8,10-triazatricyclo[9.4.0.0^2,7]pentadeca-1(11),2(7),3,5,12,14-hexaen-9-one] reads under 100 nM; that for `CCN1C(=O)N(c2ccc(NCCNC)cc2F)c2cc(Cl)ccc2-c2cc(Cl)cnc21` [2-8, 4,13-dichloro-8-ethyl-10-(2-fluoro-4-{[2-(methylamino)ethyl]amino}phenyl)-6,8,10-triazatricyclo[9.4.0.0^2,7]pentadeca-1(11),2(7),3,5,12,14-hexaen-9-one], under 100 nM; that for `CCN1C(=O)N(c2ccc(NCCNCCO)cc2)c2cc(Cl)ccc2-c2cc(Cl)cnc21` [2-9, 4,13-dichloro-8-ethyl-10-[4-({2-[(2-hydroxyethyl)amino]ethyl}amino)phenyl]-6,8,10-triazatricyclo[9.4.0.0^2,7]pentadeca-1(11),2(7),3,5,12,14-hexaen-9-one], under 100 nM.
With `CCN1C(=O)N(c2ncc(NCCNCCO)cc2F)c2cc(Cl)ccc2-c2cc(Cl)cnc21` [2-10, 4,13-dichloro-8-ethyl-10-[3-fluoro-5-({2-[(2-hydroxyethyl)amino]ethyl}amino)pyridin-2-yl]-6,8,10-triazatricyclo[9.4.0.0^2,7]pentadeca-1(11),2(7),3,5,12,14-hexaen-9-one], the Ki is under 100 nM.
The result for `CCN1C(=O)N(c2ncc(NCCNC)cc2F)c2cc(Cl)ccc2-c2cc(Cl)cnc21` [2-11, 4,13-dichloro-8-ethyl-10-(3-fluoro-5-{[2-(methylamino)ethyl]amino}pyridin-2-yl)-6,8,10-triazatricyclo[9.4.0.0^2,7]pentadeca-1(11),2(7),3,5,12,14-hexaen-9-one] reads under 100 nM.
As for `CCN1C(=O)N(c2ccc(NCCNC3CCOCC3)cc2F)c2cc(Cl)ccc2-c2cc(Cl)cnc21` [2-12, 4,13-dichloro-8-ethyl-10-[2-fluoro-4-({2-[(oxan-4-yl)amino]ethyl}amino)phenyl]-6,8,10-triazatricyclo[9.4.0.0^2,7]pentadeca-1(11),2(7),3,5,12,14-hexaen-9-one], the Ki is under 100 nM.
